The values below come from BindingDB's records for doi:10.1111/cbdd.12118 (Bombay College of Pharmacy, 2013).

Molecules are shown by their SMILES.

The target in this test is T1, Enoyl-acyl carrier reductase (Plasmodium falciparum, UniProt Q9BH77).
T1 sequence (Q9BH77 whole entry): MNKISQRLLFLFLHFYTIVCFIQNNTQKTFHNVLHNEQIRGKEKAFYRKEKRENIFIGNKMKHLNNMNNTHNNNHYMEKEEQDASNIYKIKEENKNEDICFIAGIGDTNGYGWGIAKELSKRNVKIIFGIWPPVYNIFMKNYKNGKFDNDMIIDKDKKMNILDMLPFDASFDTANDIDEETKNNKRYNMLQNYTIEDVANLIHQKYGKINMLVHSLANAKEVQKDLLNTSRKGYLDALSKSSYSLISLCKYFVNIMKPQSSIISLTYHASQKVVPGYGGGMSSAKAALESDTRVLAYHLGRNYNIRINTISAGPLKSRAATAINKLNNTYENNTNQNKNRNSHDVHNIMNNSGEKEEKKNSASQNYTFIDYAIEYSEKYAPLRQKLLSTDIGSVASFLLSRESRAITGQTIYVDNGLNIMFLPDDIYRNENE
In words: Fabl Assay. The settings on record: pH 7.4. An excerpt:
Inhibition assay using pfENR.

`O=C(CNc1ccccc1)N/N=C/c1ccccc1Cl` [Phenylaminoacetic acid benzylidene hydrazine analog, 1] showed an IC50 of 90 µM.

In turn, `COc1ccc(/C=N/NC(=O)CNc2ccccc2)cc1OC` [Phenylaminoacetic acid benzylidene hydrazine analog, 2] registered an IC50 greater than 159 µM.

In the case of `COc1ccc(/C=N/NC(=O)CNc2ccc(Cl)cc2)cc1OC` [Phenylaminoacetic acid benzylidene hydrazine analog, 3], the IC50 was greater than 143 µM.

The compound `O=C(CNc1ccc(Cl)cc1)N/N=C/c1ccccc1` [Phenylaminoacetic acid benzylidene hydrazine analog, 4] registered an IC50 of 10 µM.

As to `O=C(CNc1ccc(F)cc1)N/N=C/c1ccccc1O` [Phenylaminoacetic acid benzylidene hydrazine analog, 6], half-maximal inhibition (IC50) required 12 µM.

Consider `CN(C)c1ccc(/C=N/NC(=O)CNc2ccc(F)cc2)cc1` [Phenylaminoacetic acid benzylidene hydrazine analog, 7], for which the IC50 is 8 µM.

Compound `O=C(CNc1ccccc1)N/N=C/c1ccccc1` [Phenylaminoacetic acid benzylidene hydrazine analog, 8] showed an IC50 of 197 µM.

Consider `O=C(CNc1ccccc1)N/N=C/c1cccc(Br)c1` [Phenylaminoacetic acid benzylidene hydrazine analog, 9], for which inhibition was half-maximal at 90 µM (IC50).

Take `O=C(CNc1ccccc1)N/N=C/c1ccccc1O` [Phenylaminoacetic acid benzylidene hydrazine analog, 10]: the IC50 was greater than 185 µM.

On to `CN(C)c1ccc(/C=N/NC(=O)CNc2ccccc2)cc1` [Phenylaminoacetic acid benzylidene hydrazine analog, 11], for which the IC50 was greater than 168 µM.

Turning to `O=C(CNc1cccc(F)c1Cl)N/N=C/c1ccccc1O` [Phenylaminoacetic acid benzylidene hydrazine analog, 12], the IC50 is greater than 155 µM.

The compound `O=C(CNc1cccc(F)c1Cl)N/N=C/c1ccccc1` [Phenylaminoacetic acid benzylidene hydrazine analog, 13] came in with an IC50 greater than 163 µM.

`O=C(CNc1cccc(F)c1Cl)N/N=C/c1ccccc1Cl` [Phenylaminoacetic acid benzylidene hydrazine analog, 14] showed an IC50 of 29 µM.

In turn, `O=C(CNc1cccc(F)c1Cl)N/N=C/c1cccc(Br)c1` [Phenylaminoacetic acid benzylidene hydrazine analog, 15] had an IC50 greater than 129 µM.

As for `O=C(CNc1ccc(Cl)cc1)N/N=C/c1ccccc1O` [Phenylaminoacetic acid benzylidene hydrazine analog, 16], the IC50 was greater than 164 µM.

`O=C(CNc1ccc(Cl)cc1)N/N=C/c1cccc(Br)c1` [Phenylaminoacetic acid benzylidene hydrazine analog, 17] displayed an IC50 of 7 µM.

`O=C(CNc1ccc(F)cc1)N/N=C/c1ccccc1Cl` [Phenylaminoacetic acid benzylidene hydrazine analog, 18]: the IC50 was determined as 163 µM.

With `O=C(CNc1cccc(Cl)c1)N/N=C/c1ccccc1` [Phenylaminoacetic acid benzylidene hydrazine analog, 19], the IC50 came to 173 µM.

For the compound `O=C(CNc1cccc(Cl)c1)N/N=C/c1ccccc1Cl` [Phenylaminoacetic acid benzylidene hydrazine analog, 20], the IC50 stood at 77 µM.

As to `O=C(CNc1cccc(Cl)c1)N/N=C/c1cccc(Br)c1` [Phenylaminoacetic acid benzylidene hydrazine analog, 21], the IC50 came out at 163 µM.

In general, IC50 refers to the concentration that inhibits the measured activity by half.
